Experimental findings from ChEMBL document CHEMBL4020791, “Synthesis and anti-proliferative activity of a small library of 7-substituted 5H-pyrrole [1,2-a][3,1]benzoxazin-5-one derivatives” (Bioorg Med Chem Lett, 2017) are described below.

For assay [1], the system named is SK-BR-3. As to the kind of experiment: Cytotoxicity against human SKBR3 cells assessed as reduction in cell viability after 72 hrs by MTT assay. The class given is functional, cell-based. Particulars: SK-BR-3, 72 h. (In general: Tetrazolium dyes change colour on reduction, which living cells bring about.)
Assay [2] deals with MDA-MB-231. The assay is described as follows: cells. As to conditions: Homo sapiens, MDA-MB-231, 72 h.
Description: Cytotoxicity against human MDA-MB-231 cells assessed as reduction in cell viability after 72 hrs by MTT assay
The subject of a further assay is MCF-10A. As to the kind of experiment: Cytotoxicity against human MCF10A after 72 hrs by MTT assay. The class given is cell-based.
Assay [3] deals with MCF7. As to the kind of experiment: Cytotoxicity against human MCF7 cells assessed as reduction in cell viability after 72 hrs by MTT assay. The class given is functional, cell-based. Particulars: MCF7, 72 h.
Assay [4] has as its system MCF7. As to the kind of experiment: Cell cycle arrest in human MCF7 cells assessed as accumulation at S phase after 24 hrs by propidium iodide-staining based FACS analysis. The format is functional.
Assay [5] relates to MCF7. As to the kind of experiment: Cell cycle arrest in human MCF7 cells assessed as accumulation at S phase at 5 uM after 24 hrs by propidium iodide-staining based FACS analysis (reference value: 22.6%). The class given is functional. A general note: In flow cytometry, cells or beads pass a laser one at a time.
For assay [6], the system named is MCF7. As to the kind of experiment: Cell cycle arrest in human MCF7 cells assessed as accumulation at G2/M phase at 10 uM after 24 hrs by propidium iodide-staining based FACS analysis (reference value: 6.3%). The format is functional.
For assay [7], the system named is MCF7. The assay is described as follows: Increase in p53 expression in human MCF7 cells at 1 to 10 uM after 24 hrs by immunoblot method. The format is functional, cell-based.
In assay [8] the test system is MCF7. As to the kind of experiment: Cell cycle arrest in human MCF7 cells assessed as accumulation at G2/M phase at 5 uM after 24 hrs by propidium iodide-staining based FACS analysis (reference value: 6.3%). The format is functional.
Assay [9] relates to MCF7. As to the kind of experiment: Increase in p21waf1/cip1 protein expression in human MCF7 cells at 1 to 10 uM after 24 hrs by immunoblot method. The format is functional, cell-based. (In general: Immunoblotting shows a protein as a band on a membrane.)
Assay [10] relates to MCF7. The assay is described as follows: Cell cycle arrest in human MCF7 cells assessed as accumulation at S phase at 10 uM after 24 hrs by propidium iodide-staining based FACS analysis (reference value: 22.6%). The format is functional.
In assay [11] the test system is MCF7. The assay is described as follows: Cell cycle arrest in human MCF7 cells assessed as accumulation at G0/G1 phase at 10 uM after 24 hrs by propidium iodide-staining based FACS analysis (reference value: 71.1%). The format is functional.
Assay [12] concerns MCF7. The assay is described as follows: Cell cycle arrest in human MCF7 cells assessed as accumulation at G0/G1 phase at 5 uM after 24 hrs by propidium iodide-staining based FACS analysis (reference value: 71.1%). The format is functional.
Assay [13] deals with MCF7. As to the kind of experiment: Induction of apoptosis in human MCF7 cells assessed as increase in cleaved PARP-1 expression at 1 to 10 uM after 24 hrs by immunoblot method. The class given is functional, cell-based.
For assay [14], the system named is MCF7. As to the kind of experiment: Change in cyclin D1 levels in human MCF7 cells at 1 to 10 uM after 24 hrs by Western blot analysis. The class given is functional, cell-based.
Assay [15] relates to MCF7. As to the kind of experiment: Antiproliferative activity against human MCF7 cells at 50 uM after 72 hrs by MTT assay. The format is functional, cell-based.
Assay [16] has as its system MDA-MB-231. The assay is described as follows: Antiproliferative activity against human MDA-MB-231 cells at 50 uM after 72 hrs by MTT assay. The format is functional, cell-based.
In assay [17] the test system is SK-BR-3. The assay is described as follows: Antiproliferative activity against human SKBR3 cells at 50 uM after 72 hrs by MTT assay. The class given is functional, cell-based.

Active and inactive are the calls of the source. The calls are words filed in the database; no cut-off is given here.

In the case of `O=c1oc2cccn2c2ccc(-c3ccccc3)cc12`, the concentration for half-maximal inhibition (IC50) – broadly, the midpoint of a concentration-inhibition curve – worked out at 61 µM in the assay with SK-BR-3 [1], 93.5 µM with MDA-MB-231 [2], 180 µM with MCF-10A and 66.5 µM in the assay on MCF7 [3].
Take `O=c1oc2cccn2c2ccc(-c3ccc(-c4ccccc4)cc3)cc12`: the IC50 in the assay with SK-BR-3 [1] was 9.2 µM; in the assay on MDA-MB-231 [2], 10 µM; in the assay on MCF-10A it was over 250 µM; with MCF7 [3], 9.03 µM. Also, the Activity result was “Dose-dependent effect” with MCF7 [4]; 15.6% in the assay on MCF7 [5]; 8.4% with MCF7 [6]; 7.8% with MCF7 [8]; 18.8% in the assay with MCF7 [10]; 72.8% with MCF7 [11]. The Activity in the assay with MCF7 [12] is recorded as 76.6%. The outcome in the assay with MCF7 [7], in the assay on MCF7 [9], with MCF7 [13] and in the assay with MCF7 [14] was Active.
On to `COc1cccc2c1C(=O)c1c(O)c3c(c(O)c1C2=O)C[C@@](O)(C(=O)CO)C[C@@H]3O[C@H]1C[C@H](N)[C@H](O)[C@H](C)O1` [DOXORUBICIN], for which the IC50 worked out at 8.48 µM in the assay with SK-BR-3 [1], 10 µM in the assay with MDA-MB-231 [2] and 12.5 µM in the assay with MCF-10A.
As for `O=c1oc2cccn2c2ccc(-c3ccc(C(F)(F)F)nc3)cc12`, the IC50 is 46.8 µM in the assay with SK-BR-3 [1], 73 µM in the assay on MDA-MB-231 [2], 155 µM in the assay on MCF-10A and 43.1 µM in the assay on MCF7 [3].
The like results for `O=c1oc2cccn2c2ccc(-c3cccnc3O)cc12` were, in that order, 72 µM, 78.9 µM, 154 µM and 60.9 µM.
Turning to `COC(=O)c1ccc(-c2ccc3c(c2)c(=O)oc2cccn23)cc1`, the IC50 with SK-BR-3 [1] came out at 59.3 µM; in the assay with MDA-MB-231 [2] it was 65 µM; with MCF-10A, 162 µM; with MCF7 [3], 48.7 µM.
Regarding `O=c1oc2cccn2c2ccccc12`, the outcome in the assay on MCF7 [15], with MDA-MB-231 [16] and with SK-BR-3 [17] was Active.
On to `O=c1oc2cccn2c2cc3ccccc3cc12`, for which the result in the assay with MCF7 [15], in the assay on MDA-MB-231 [16] and in the assay on SK-BR-3 [17] was Active.
Consider `O=c1oc2cccn2c2ncccc12`, for which the result with MCF7 [15], in the assay with MDA-MB-231 [16] and with SK-BR-3 [17] was Active.
For the molecule `O=c1oc2cccn2c2ccc(Br)cc12`, the IC50 in the assay on SK-BR-3 [1] amounted to 126 µM; with MDA-MB-231 [2] it was 217 µM; in the assay with MCF-10A, 262 µM; in the assay on MCF7 [3], 123 µM. Besides, the outcome in the assay with MCF7 [15], in the assay with MDA-MB-231 [16] and in the assay with SK-BR-3 [17] was Active.
For `O=c1oc2cccn2c2ccc(-c3ccc(O)cc3)cc12`, the 50% inhibitory concentration (IC50) is 27 µM in the assay with SK-BR-3 [1], 31 µM in the assay on MDA-MB-231 [2], 79.8 µM in the assay on MCF-10A and 18.5 µM in the assay on MCF7 [3].
